Data on 3 molecules can be found in patent publication US7053041B1, “Methods and compositions useful for inhibition of αvβ5mediated angiogenesis” (The Scripps Research Institute, priority 1996, dated 2006).

Assay [1] deals with bFGF-induced angiogenesis. The assay can be described thus: in vivo rabbit eye model assay, bFGF-induced corneal angiogenesis. The method, then: Hydron polymer pellets containing growth factor and monoclonal antibodies (mAbs) were prepared as described by D'Amato, et al., Proc. Natl. Acad. Sci., 91:4082–4085 (1994). […] In addition, hydron pellets were prepared which contained either 40 μg of the mAb P1F6 (anti-αvβ5) or the control antibody, LM609 (anti-αvβ3), in PBS.
All of the mAbs tested were purified from ascites fluid using Protein-A Sepharose CL-4B affinity column chromatography according to well-known methods. The eluted immunoglobulin was then dialyzed against PBS and treated with Detoxi-gel (Pierce Chemicals, Rockford, Ill.) to remove endotoxin. […] Monoclonal antibodies were therefore tested for the presence of endotoxin with the Chromogenic Limulus Amebocyte Lysate Assay (BioWhittaker, Walkersville, Md.) and only those mAbs without detectable endotoxin were used in the rabbit eye model assay.
Approximately 12 μl of casting material was placed into each peg and polymerized overnight in a sterile hood. Pellets were then sterilized by ultraviolet irradiation.
A series of eight animals were used for paired eye experiments where each animal received a Hydron implant containing a preselected cytokine with a preselected antibody or control immunoglobulin. Specifically, for each rabbit, one cornea was surgically implanted with a Hydron pellet containing either bFGF or VEGF in conjunction with mAb P1F6 and the other cornea was treated with either bFGF or VEGF in conjunction with MAb LM609. Individual pellets were implanted into surgically created “pockets” formed in the mid-stroma of the cornea of rabbits. The surgical procedure was done under sterile technique using a Wild model M691 operating microscope equipped with a beamsplitter to which was mounted a camera for photographically recording individual corneas. A 3 mm by 5 mm “pocket” was created in the corneal stroma by making a 3 mm incision to half the corneal thickness with a 69 Beaver blade. The stroma was dissected peripherally using an iris spatula and the pellet was implanted with its peripheral margin 2 mm from the limbus. […]
The effects of specific mAb integrin immunoreactivity on the above cytokine-induced angiogenesis is also quantified as shown in FIGS. 2A and 2B. […] Photographs were recorded on Kodak Ektachrome 64T slide film and images were converted for computer-assisted quantitation using Biorad's Molecular Analyst 1.1 software after acquisition through a Model GS670 imaging densitometer. […]
Each experiment consisted of eight rabbits in which one eye received a pellet comprising 100 nanograms (ng) bFGF and the other eye received a pellet comprising 1 microgram (ug) VEGF. […] After 7 days, the cornea were evaluated as described above.

For assay [2], the system named is M21L human melanoma tumors. The assay can be described thus: chimeric mouse:human (SCID) assay, M21L melanoma tumor growth. Type of assay: in vivo. Particulars: for tumor volume (FIG. 9): 250 μg peptide intraperitoneally 3 times per week over 3 weeks; for tumor volume (FIG. 21): M21-L tumors, peptides compared with mAB LM609. The protocol: An in vivo chimeric mouse:human model was generated by replacing a portion of skin from a SCID mouse with human neonatal foreskin. The in vivo chimeric mouse:human model was prepared essentially as described in Yan, et al., J. Clin. Invest., 91:986–996 (1993). Briefly, a 2 cm^2 square area of skin was surgically removed from a SCID mouse (6–8 weeks of age) and replaced with a human foreskin. The mouse was anesthetized and the hair removed from a 5 cm^2 area on each side of the lateral abdominal region by shaving. Two circular graft beds of 2 cm^2 were prepared by removing the full thickness of skin down to the fascia. Full thickness human skin grafts of the same size derived from human neonatal foreskin were placed onto the wound beds and sutured into place. The graft was covered with a Band-Aid which was sutured to the skin. Micropore cloth tape was also applied to cover the wound.
After the skin graft was established, the human foreskin was inoculated with melanoma cells. The M21L human melanoma cell line was used to form the solid human tumors on the human skin grafts on the SCID mice. A single cell suspension of 2×10^6 M21L was injected intradermally into the human skin graft. The mice were then observed for 2 to 4 weeks to allow growth of measurable human tumors.
After a measurable tumor was established, either 250 μg of the peptide (in a volume of 100 μl) having SEQ ID NO 9 (cyclic RGD-containing peptide Arg-Gly-Asp-D-Phe-Asn-NMeVAL) or a control peptide, cyclo Arg-βAla-Asp-D-Phe-Val, were injected intraperitoneally into the mouse 3 times per week over 3 weeks. At the end of this time, the tumor was excised and analyzed by weight and histology.
In additional assays with the SCID mice model having measurable M21-L tumors, in a preliminary analysis, a dose response curve was performed for peptides 69601 (control) and 85189 (test) injected over a concentration range of 10 to 250 μg/ml. The mean volume and weight of resected tumors following treatment were determined with the results respectively shown in FIGS. 22A and 22B.
For analyzing peptide 85189 treatment effectiveness over a time course, two treatment regimens were evaluated in the same SCID tumor model. In one assay, treatment with either peptide 85189 or 69601 was initiated on day 6, with day 0 being the day of M21-L tumor injection of 3×10^6 cells subcutaneously into mouse skin, with intraperitoneal injections of 250 μg/ml peptide 85189 or control 69601 every other day until day 29. The other assay was identically performed with the exception that treatment was initiated on day 20. At the end of the assays, the tumors were resected and the mean tumor volume in mm^3 was determined. The data was plotted as this value +/− the standard error of the mean.

[ ]: non-standard residue; d: D form.

For “cyclo(Arg-Ala-Asp-D-Phe-Val) (cyclo(RAD[dF]V); SMILES CC(C)[C@@H]1NC(=O)[C@@H](Cc2ccccc2)NC(=O)[C@H](CC(=O)O)NC(=O)[C@H](C)NC(=O)[C@H](CCCNC(=N)N)NC1=O) [peptide 69601, reference compound]”, the “corneal blood vessel growth at 7 days, bFGF-stimulated eyes” value in assay [1] (peptide s.q. 50 ug per kg initial, 20 ug/kg daily, 100 ng bFGF pellet) is “substantial corneal blood vessel growth”. In addition, in assay [2], the “tumor volume (FIG. 9)” value is “greater than 300 mm^3” and the “tumor volume (FIG. 21)” value is listed as “approximately 360 mm^3”.

On to “cyclo(Arg-Gly-Asp-D-Phe-NMeVal) [peptide 85189]”, for which, in assay [1] (peptide s.q. 50 ug per kg initial, 20 ug/kg daily, 7 days, 100 ng bFGF pellet), the “amount of corneal blood vessel growth compared to controls” value is listed as “less than 50%”. In assay [2], the “tumor volume (FIG. 9)” value was “approximately 25 mm^3” and the “tumor volume (FIG. 21)” value is given as “below 25 mm^3”. The “inhibition of tumor growth over a time course (mean tumor volume)” value in assay [2] (250 μg/ml intraperitoneally every other day from day 6 or day 20 until day 29) is on record as “inhibited tumor growth”. The “inhibition of M21-L tumor growth, dose response (volume and weight)” value in assay [2] (10 to 250 μg/ml, preliminary analysis) is “effective at inhibiting M21-L tumor growth”. In assay [2] (range tested 10 to 250 μg/ml), this molecule displayed a most effective dosage of 250 µg/mL.

B1: LM609: mouse monoclonal antibody, anti-αvβ3 (antibody, V domains shown)
VH: EVQLEESGGGLVKPGGSLKLSCAASGFAFSSYDMSWVRQIPEKRLEWVAKVSSGGGSTYYLDTVQGRFTISRDNAKNTLYLQMSSLNSEDTAMYYCARHNYGSFAYWGQGTLVTVSA
VL: ELVMTQTPATLSVTPGDSVSLSCRASQSISNHLHWYQQKSHESPRLLIKYASQSISGIPSRFSGSGSGTDFTLSINSVETEDFGMYFCQQSNSWPHTFGGGTKLEIKRA
For B1, the “reduction of bFGF-induced angiogenesis (mean neovascular area)” value in assay [1] (40 μg mAb in pellet, compared to paired eye treated with P1F6, p<0.005) is given as 86%. Moreover, the “inhibition of bFGF-induced corneal angiogenesis” value in assay [1] (Hydron pellet with 750 ng bFGF and 40 μg mAb, postoperative day 10) was “inhibited”. In addition, in assay [2], the “tumor volume (FIG. 21)” value was “approximately 60 mm^3”.
